# From US20220306609A1, “BICYCLIC COMPOUNDS AS ANDROGEN RECEPTOR MODULATORS” (NIDO BIOSCIENCES, INC., priority 2021, published 2022)
# Biological target: T1, androgen receptor (AR) (Homo sapiens, UniProt P10275, T878A)
# T1 construct: LNCaP cells expressing ARR2PB-FireflyLuc and CMV-RenillaLuc; endogenous in cells; host or cells: LNCaP
# T1 sequence (P10275 1-920 T878A): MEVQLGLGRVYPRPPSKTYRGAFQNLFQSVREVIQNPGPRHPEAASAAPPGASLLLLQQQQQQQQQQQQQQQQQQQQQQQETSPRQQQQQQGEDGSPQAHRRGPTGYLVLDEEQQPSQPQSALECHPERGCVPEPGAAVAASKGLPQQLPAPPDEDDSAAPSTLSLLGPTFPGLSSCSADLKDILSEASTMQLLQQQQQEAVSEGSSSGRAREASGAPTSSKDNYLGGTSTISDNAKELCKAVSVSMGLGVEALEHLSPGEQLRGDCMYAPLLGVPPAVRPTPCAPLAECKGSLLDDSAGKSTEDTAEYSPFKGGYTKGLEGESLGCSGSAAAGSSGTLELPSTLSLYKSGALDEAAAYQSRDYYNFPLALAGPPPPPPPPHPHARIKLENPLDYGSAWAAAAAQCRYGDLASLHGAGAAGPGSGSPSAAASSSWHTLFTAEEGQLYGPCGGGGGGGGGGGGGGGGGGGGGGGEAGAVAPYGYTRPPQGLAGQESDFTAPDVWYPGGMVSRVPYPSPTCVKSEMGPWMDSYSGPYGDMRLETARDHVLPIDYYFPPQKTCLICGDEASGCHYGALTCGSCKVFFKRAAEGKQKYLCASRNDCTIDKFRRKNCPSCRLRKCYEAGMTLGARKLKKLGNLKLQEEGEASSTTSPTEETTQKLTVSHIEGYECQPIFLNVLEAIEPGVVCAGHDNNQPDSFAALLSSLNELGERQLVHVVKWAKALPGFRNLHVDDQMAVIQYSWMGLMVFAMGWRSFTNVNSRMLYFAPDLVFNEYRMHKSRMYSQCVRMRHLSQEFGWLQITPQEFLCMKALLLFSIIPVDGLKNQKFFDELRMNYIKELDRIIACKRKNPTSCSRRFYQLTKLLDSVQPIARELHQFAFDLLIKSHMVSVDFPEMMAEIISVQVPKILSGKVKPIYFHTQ
# Assay: LNCaP ARR2PB-FireflyLuc / CMV-RenillaLuc reporter assay, antagonist mode
# Type: cell-based
# Conditions: LNCaP cells expressing ARR2PB-FireflyLuc and CMV-RenillaLuc; +/- 0.5 nM DHT; 48 h at 37° C
# Method: LNCaP cells expressing ARR2PB-FireflyLuc and CMV-RenillaLuc were treated with indicated concentrations of test compounds, enzalutamide ([…]), or DHT (positive control)+/−0.5 nM DHT for 48 h at 37° C. Fluorescent signals were read with the ImageXpress Micro Confocal System. Remaining activity (antagonist mode) was calculated as % Remaining Activity=100×[(ReadSample−[…])/(HCave−LCave)] where HC is cells treated with 0.5 nM DHT only and LC is cells treated with 10 uM enzalutamide+0.5 nM DHT. Activation (agonist mode) was calculated as % Activation=100×[(ReadSample−LCave)/(HCave−LCave)] where HC is cells treated with 1 uM DHT and LC is cells treated with DMSO. Dose response curves and IC50 values were calculated using non-linear regression analysis in XLfit.
# The designation “A” indicates an IC50 value of >10 μM, “B” indicates an IC50 value between 1 μM and 10 μM; “C” indicates an IC50 value between 100 nM and 1 μM; and “D” indicates an IC50 value of less than 100 nM.
smiles,measurement,value
"CCN1N=C(c2c[nH]c3c(C#N)cccc23)CCC1=O [Compound 001, 3-(1-ethyl-6-oxo-4,5-dihydropyridazin-3-yl)-1H-indole-7-carbonitrile]",IC50,100 to 1000 nM
"CCn1nc(-c2c[nH]c3c(C#N)cccc23)ccc1=O [Compound 002, 3-(1-ethyl-6-oxopyridazin-3-yl)-1H-indole-7-carbonitrile]",IC50,< 100 nM
"CCn1nc(-c2c[nH]c3c(Cl)nccc23)ccc1=O [Compound 003, 6-[7-chloro-1H-pyrrolo[2,3-c]pyridin-3-yl]-2-ethylpyridazin-3-one]",IC50,> 10000 nM
"N#Cc1cccc2c(-c3ccc(=O)n(CC(F)F)n3)c[nH]c12 [Compound 004, 3-[1-(2,2-difluoroethyl)-6-oxopyridazin-3-yl]-1H-indole-7-carbonitrile]",IC50,100 to 1000 nM
"CCn1nc(-c2c[nH]c3c(C#N)cccc23)c(C)cc1=O [Compound 005, 3-(1-ethyl-4-methyl-6-oxopyridazin-3-yl)-1H-indole-7-carbonitrile]",IC50,1000 to 10000 nM
"CCn1nc(-c2c[nH]c3c(C#N)cccc23)cc(OC)c1=O [Compound 006, 3-(1-ethyl-5-methoxy-6-oxopyridazin-3-yl)-1H-indole-7-carbonitrile]",IC50,1000 to 10000 nM
"CCn1cc(-c2c[nH]c3c(C#N)cccc23)cn1 [Compound 007, 3-(1-ethylpyrazol-4-yl)-1H-indole-7-carbonitrile]",IC50,1000 to 10000 nM
"CCn1ccc(-c2c[nH]c3c(C#N)cccc23)n1 [Compound 008, 3-(1-ethylpyrazol-3-yl)-1H-indole-7-carbonitrile]",IC50,< 100 nM
"N#Cc1cccc2c(-c3ccn(C4CC4)n3)c[nH]c12 [Compound 009, 3-(1-cyclopropylpyrazol-3-yl)-1H-indole-7-carbonitrile]",IC50,100 to 1000 nM
"CC(C)(O)Cn1ccc(-c2c[nH]c3c(C#N)cccc23)n1 [Compound 010, 3-[1-(2-hydroxy-2-methylpropyl)pyrazol-3-yl]-1H-indole-7-carbonitrile]",IC50,> 10000 nM
"CCn1nc(-c2c[nH]c3c(C#N)cccc23)cc1C [Compound 011, 3-(1-ethyl-5-methylpyrazol-3-yl)-1H-indole-7-carbonitrile]",IC50,100 to 1000 nM
"CCn1nc(C)cc1-c1c[nH]c2c(C#N)cccc12 [Compound 012, 3-(2-ethyl-5-methylpyrazol-3-yl)-1H-indole-7-carbonitrile]",IC50,< 100 nM
